Results reported in PMC7226045, “Ensartinib (X-396) Effectively Modulates Pharmacokinetic Resistance Mediated by ABCB1 and ABCG2 Drug Efflux Transporters and CYP3A4 Biotransformation Enzyme” (Cancers, 2020).

Tests used:
CYP3A4 = CYP3A4 (Homo sapiens, UniProt P08684); assay: Inhibition of CYP3A4 in intact HepG2-CYP3A4 cells (P450-Glo, luciferin-IPA); format: cell-based; set-up: expressed in transfected cells; host or cells: HepG2-CYP3A4; conditions: luciferin-IPA 2 µM, 45 min, normalized to viability, read-out: IC50, inhibition of CYP3A4 in enzyme-overexpressing HepG2 cells
Procedure: A cell-based method using the P450-Glo CYP3A4 Assay and Screening System with Luciferin-IPA together with the CellTiter-Glo Luminescent Cell Viability Assay was used to measure CYP3A4 inhibition in intact HepG2-CYP3A4 cells [27]. HepG2-CYP3A4 cells were seeded on a transparent 96-well plate at a density of 8.0 × 10^4 cells/well and cultured for 24 h. […] After a 10 min pre-incubation under standard conditions, the CYP3A4 substrate luciferin-IPA was quickly added to all cells other than background samples at a final concentration of 2 µM and the plates were then incubated for 45 min at room temperature. After incubation, the plates were placed on ice and some of the culture media from the cells was transferred to an opaque white 96-well plate and mixed with Luciferin Detection Reagent in a ratio of 1:1 (v/v). The resulting solution was incubated for 20 min at room temperature, then the samples’ luminescence was measured using a microplate reader (Infinite M200 Pro, Tecan, Männedorf, Switzerland) with an integration time of 250 ms. The remaining media was separated from the cells, then 35 µL of pure Opti-MEM was added and the resulting mixture was incubated for 30 min at room temperature. […] Luminescence (which correlates with cell viability) was monitored under conditions identical to those used in the previous step.

ABCC1 = molecular target: T1, ABCC1 (Homo sapiens, UniProt P33527); assay: calcein AM accumulation assay in MDCKII-ABCC1 cells; format: cell-based; conditions: read-out: IC50, inhibition of ABCC1-mediated calcein AM efflux
T1 construct: expressed in transfected cells; host or cells: MDCKII-ABCC1 (from Dr. Alfred Schinkel, The Netherlands Cancer Institute)
Procedure: Cellular accumulation assay with hoechst 33342 and calcein AM was performed as described previously. Briefly, MDCKII-par, MDCKII-ABCB1, MDCKII-ABCG2, and MDCKII-ABCC1 cells were seeded at densities of 5.0 × 10^4, 5.0 × 10^4, 5.5 × 10^4, and 6.0 × 10^4 cells/well, respectively, on a transparent 96-well plate and grown to full confluence for 24 h under standard conditions. The cells were then washed twice with 1 × PBS, after which was added either a dilution of ensartinib in Opti-MEM (1, 5, 10, 25, or 50 µM) or a specific inhibitor to act as a positive control (1 µM LY335979, 1 µM Ko143, or 25 µM MK-571 for ABCB1, ABCG2, or ABCC1, respectively). Cells were pre-incubated for 10 min, then 8 µM hoechst 33342 (a model substrate for ABCB1 and ABCG2) or 2 µM calcein AM (ABCC1 substrate) diluted in Opti-MEM was quickly added to all wells other than those containing blank samples. The intracellular levels of the substrates were then determined at 1 min intervals for 30 min using a microplate reader (Infinite M200 Pro, Tecan, Männedorf, Switzerland). Fluorescence was monitored in bottom mode using excitation/emission wavelengths of 350/465 and 485/535 nm for hoechst 33342 and calcein AM, respectively.

CYP3A5 = molecular target: T2, CYP3A5 (Homo sapiens, UniProt P20815); assay: Vivid CYP screening kit, recombinant CYP3A5; format: biochemical; conditions: recombinant enzyme, 15 min incubation, absolute IC50; read-out: CYP3A5 inhibition IC50
T2 construct: purchased Thermo Fisher Scientific; host or cells: insect microsomal fractions
Procedure: (§1) CYP inhibitory assay was performed as described previously. Experiments were performed with commercial Vivid CYP screening kits containing insect microsomal fractions enriched with a specific human CYP isoform, human CYP reductase, and in some cases, human cytochrome b5. The potential inhibitory activity of ensartinib toward CYP1A2, CYP2B6, CYP2C8, CYP2C9, CYP2C19, CYP2D6, CYP3A4, and CYP3A5 (i.e., all CYP isoforms that drug regulatory authorities recommend for testing of inhibition by new molecular entities) was then examined. Experiments were performed using a kinetic mode in black 96-well plates according to the manufacturer´s instructions. Briefly, 5-point serial dilutions of ensartinib or the model inhibitor recommended by the manufacturer in buffer were transferred into the wells, then a master mix consisting of a CYP isoenzyme with an NADPH regeneration system in buffer was added. After a 10 min pre-incubation, the reaction was initiated by adding a mixture of NADP^+ and the appropriate Vivid substrate, after which fluorescence was measured at 1 min intervals for 60 min using an Infinite M200 Pro microplate reader (Tecan, Männedorf, Switzerland). The enzyme concentration and incubation interval used for data evaluation (15 min) placed the systems within the linear regions of the appropriate reaction velocity curves. […]

[1] = MTT proliferation assay, A431-ABCB1; format: cell-based; conditions: human, A431-ABCB1 cells, read-out: IC50, sensitivity to ensartinib
Procedure: (§2) MTT proliferation assay was performed as described previously.

CYP2D6 = molecular target: T3, CYP2D6 (Homo sapiens, UniProt P10635); assay: Vivid CYP screening kit, recombinant CYP2D6; format: biochemical; conditions: recombinant enzyme
T3 construct: purchased Thermo Fisher Scientific; host or cells: insect microsomal fractions
Procedure: as §1

A431-ABCC1 cells = assay: MTT proliferation assay, A431-ABCC1; format: cell-based; conditions: Homo sapiens, 48 h, read-out: IC50, sensitivity to ensartinib
Procedure: as §2

[2] = MTT proliferation assay, A431-ABCG2; format: cell-based; conditions: human, A431-ABCG2 cells, read-out: IC50, sensitivity to ensartinib
Procedure: as §2

T3 sequence (P10635 whole entry): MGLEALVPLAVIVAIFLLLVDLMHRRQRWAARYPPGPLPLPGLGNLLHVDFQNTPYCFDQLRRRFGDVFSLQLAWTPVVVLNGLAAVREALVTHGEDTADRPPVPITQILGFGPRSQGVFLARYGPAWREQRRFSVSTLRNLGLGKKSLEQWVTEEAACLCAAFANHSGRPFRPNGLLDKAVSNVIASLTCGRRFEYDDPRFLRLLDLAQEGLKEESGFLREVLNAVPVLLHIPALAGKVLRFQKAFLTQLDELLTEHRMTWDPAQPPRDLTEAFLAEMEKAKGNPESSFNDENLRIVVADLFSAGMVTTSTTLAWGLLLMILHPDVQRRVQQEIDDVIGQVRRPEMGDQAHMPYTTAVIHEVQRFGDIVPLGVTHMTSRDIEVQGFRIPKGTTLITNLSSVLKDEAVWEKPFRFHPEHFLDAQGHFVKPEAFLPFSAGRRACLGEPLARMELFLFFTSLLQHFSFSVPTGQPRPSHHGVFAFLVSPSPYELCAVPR
T2 sequence (P20815 whole entry): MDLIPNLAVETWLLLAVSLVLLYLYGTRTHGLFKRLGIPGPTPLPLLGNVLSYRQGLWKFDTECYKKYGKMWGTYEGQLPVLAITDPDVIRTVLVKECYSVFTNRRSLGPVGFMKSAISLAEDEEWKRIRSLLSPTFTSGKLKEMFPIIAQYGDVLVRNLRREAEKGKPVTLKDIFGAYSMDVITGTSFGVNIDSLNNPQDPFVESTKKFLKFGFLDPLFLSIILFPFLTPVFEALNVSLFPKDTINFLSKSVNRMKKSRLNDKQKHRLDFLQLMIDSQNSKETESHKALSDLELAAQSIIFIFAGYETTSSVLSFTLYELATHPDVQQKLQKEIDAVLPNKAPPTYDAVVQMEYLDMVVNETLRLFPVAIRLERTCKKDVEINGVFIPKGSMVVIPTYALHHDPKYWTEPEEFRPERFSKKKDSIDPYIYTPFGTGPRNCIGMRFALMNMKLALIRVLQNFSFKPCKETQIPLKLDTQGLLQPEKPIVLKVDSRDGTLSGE
Chain of CYP3A4 (P08684 whole entry): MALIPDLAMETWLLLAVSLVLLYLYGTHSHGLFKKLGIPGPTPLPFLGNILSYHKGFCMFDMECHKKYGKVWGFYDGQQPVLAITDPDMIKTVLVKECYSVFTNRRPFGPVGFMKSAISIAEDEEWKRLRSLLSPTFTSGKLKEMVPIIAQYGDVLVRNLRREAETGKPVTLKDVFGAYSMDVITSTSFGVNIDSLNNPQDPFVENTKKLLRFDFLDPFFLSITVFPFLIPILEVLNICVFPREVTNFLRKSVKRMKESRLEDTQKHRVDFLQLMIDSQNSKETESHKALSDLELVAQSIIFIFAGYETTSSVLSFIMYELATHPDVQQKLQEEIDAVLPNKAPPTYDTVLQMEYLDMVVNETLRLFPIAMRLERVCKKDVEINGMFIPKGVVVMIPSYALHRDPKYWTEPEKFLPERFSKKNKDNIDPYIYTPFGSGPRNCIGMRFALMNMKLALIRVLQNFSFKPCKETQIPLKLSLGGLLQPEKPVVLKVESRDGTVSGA
T1 sequence (P33527 whole entry): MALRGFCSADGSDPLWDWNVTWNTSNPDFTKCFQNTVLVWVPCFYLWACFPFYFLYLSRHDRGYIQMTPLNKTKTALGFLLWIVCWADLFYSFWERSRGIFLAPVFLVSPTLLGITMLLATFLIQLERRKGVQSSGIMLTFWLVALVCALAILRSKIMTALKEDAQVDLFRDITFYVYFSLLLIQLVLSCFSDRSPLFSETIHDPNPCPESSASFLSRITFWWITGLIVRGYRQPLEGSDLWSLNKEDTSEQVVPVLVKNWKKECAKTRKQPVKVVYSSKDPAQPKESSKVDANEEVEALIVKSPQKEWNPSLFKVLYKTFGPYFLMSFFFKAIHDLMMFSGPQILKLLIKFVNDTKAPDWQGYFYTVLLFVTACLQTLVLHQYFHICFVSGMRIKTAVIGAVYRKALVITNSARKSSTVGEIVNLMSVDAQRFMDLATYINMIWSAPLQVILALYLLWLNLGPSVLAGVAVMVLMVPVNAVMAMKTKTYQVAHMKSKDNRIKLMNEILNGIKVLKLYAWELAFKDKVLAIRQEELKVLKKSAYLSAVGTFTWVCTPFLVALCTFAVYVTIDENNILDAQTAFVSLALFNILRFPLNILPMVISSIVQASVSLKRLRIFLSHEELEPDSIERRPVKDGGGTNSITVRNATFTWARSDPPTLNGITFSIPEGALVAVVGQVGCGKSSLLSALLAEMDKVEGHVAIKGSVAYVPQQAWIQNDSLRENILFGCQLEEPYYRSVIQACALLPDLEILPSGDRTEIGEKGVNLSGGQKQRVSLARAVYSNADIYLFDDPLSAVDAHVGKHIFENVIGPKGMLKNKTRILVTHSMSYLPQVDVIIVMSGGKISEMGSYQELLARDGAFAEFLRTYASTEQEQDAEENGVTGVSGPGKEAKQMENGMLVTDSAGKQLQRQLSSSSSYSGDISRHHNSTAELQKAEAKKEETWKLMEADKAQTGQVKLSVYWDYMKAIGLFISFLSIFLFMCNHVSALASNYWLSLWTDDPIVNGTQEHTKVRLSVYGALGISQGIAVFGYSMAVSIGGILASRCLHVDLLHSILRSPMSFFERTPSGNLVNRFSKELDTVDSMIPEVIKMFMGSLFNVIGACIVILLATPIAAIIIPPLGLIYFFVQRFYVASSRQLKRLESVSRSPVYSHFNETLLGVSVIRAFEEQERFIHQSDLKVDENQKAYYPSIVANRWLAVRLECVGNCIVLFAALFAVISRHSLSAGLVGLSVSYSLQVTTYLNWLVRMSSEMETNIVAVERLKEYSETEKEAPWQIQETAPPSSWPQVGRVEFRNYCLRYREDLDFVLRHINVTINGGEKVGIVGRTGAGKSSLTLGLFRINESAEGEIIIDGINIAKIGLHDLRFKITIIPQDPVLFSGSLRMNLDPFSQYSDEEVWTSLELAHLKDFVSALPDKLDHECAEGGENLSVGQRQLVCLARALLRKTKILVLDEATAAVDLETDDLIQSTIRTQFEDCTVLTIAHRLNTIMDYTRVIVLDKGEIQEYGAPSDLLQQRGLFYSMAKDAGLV

- IC50 (ABCC1): > 50 µM
- IC50 (CYP3A5): 19.1 µM
- inhibitory effect on CYP2D6 (in words) (CYP2D6): no appreciable inhibitory effect
- IC50 (CYP2D6; 15 min incubation, absolute IC50, read-out: CYP2D6 inhibition IC50): > 50 µM
- IC50 (A431-ABCC1 cells): 1.86 µM
SMILES: C[C@@H]1CN(C(=O)c2ccc(NC(=O)c3cc(O[C@H](C)c4c(Cl)ccc(F)c4Cl)c(N)nn3)cc2)C[C@H](C)N1 [ensartinib, Ensartinib]
- IC50 (CYP3A4): 23.5 µM
- IC50 at 48 h [1]: 2.79 µM
- IC50 at 48 h [2]: 2.26 µM
